Data: PMC9505425, “Targeting of the Mitochondrial TET1 Protein by Pyrrolo[3,2-b]pyrrole Chelators” (International Journal of Molecular Sciences, 2022)
Values joined by “and” are separate entries in the source; they are usually repeats but may differ in a detail not shown here. Equal values may be shown once.

Key:
Type in all cases: cell-based, human
[1] = system: H-1299 cells; test: MTT cytotoxicity assay, H-1299
Method: (§1) The effects of the tested compounds 1–6 on HF-P4, U-118 MG, H1299, BT-20, and Caov-3 cell lines were evaluated by the MTT assay during 48 h treatment (Table 2 and Tables S2–S31). In all tested compounds, we recognized a difference in cytotoxicity between healthy cells (HF-P4) and cancer cell lines (BT-20, Caov-3, and H-1299). […] In the case of ovarian cancer, the authors discovered oncogenic and poor prognosis roles of TET1 in epithelial ovarian carcinoma (EOC). TET1 is believed to demethylate the epigenome and activate numerous oncogenic pathways in EOC. The aforementioned study presents a new mechanism where TET1 contributes to tumor development through collaboration with CK2α [21]. The overexpression of the TET1 protein was also found in triple negative breast cancer and was associated with an activation of PI3K/mTOR pathway and decreased overall survival.
(§2) A human glioblastoma cell line (U118-MG) and a human non-small-cell lung carcinoma cell line (H1299) were used for the cytotoxicity assay (MTT). Both cell lines were generously supplied by Dr. M. Masařik, PhD, Department of Pathological physiology, Masaryk University, Czech Republic. U118-MG cells were cultivated under standard conditions in Dulbecco’s modified Eagle’s medium (ATCC, Manassas, VA, USA) supplemented with 10% FBS and streptomycin (100 μg/mL) at 37 °C at a 5% CO2 atmosphere. H1299 cells were cultivated under standard conditions in RPMI 1640 (BioTech, Prague, Czech Republic) medium supplemented with 10% FBS and streptomycin (100 μg/mL) at 37 °C at a 5% CO2 atmosphere.
(§3) For the cytotoxicity assay, we used the following cell lines: human glioblastoma cell line U118-MG, human mammary gland/breast cell line BT-20, human ovary adenocarcinoma cell line Caov-3, and non-small-cell lung carcinoma H-1299. As previously mentioned, these cell lines contain a high level of the TET1 protein, which corresponds to a lower overall survival. In addition to these cell cultures, we used the human dermal fibroblast cell line HF-P4 as a healthy control. Determination of cytotoxicity was performed using the MTT [3-(4,5-dimethylthiazol-2-yl)-2,5-diphenyltetrazolium bromide] colorimetric assay. Viable cells from each cell line were cultured in 96-well plates (VWR, Stříbrná Skalice, Czech Republic) at a density of 1.0 × 10^5 cells per well and allowed to grow for 24 h in 200 μL of recommended medium. After a 1-day incubation, the medium was replaced with solutions of compounds 1–6 at concentration ranges of 0.1–20 μM. Each concentration was measured four times within one test, and the entire test was repeated three times. Tested compounds 1–6 were dissolved in DMSO and then diluted with corresponding medium to a final volume of 200 μL (maximum 1% DMSO). After 48 h exposure, cells were treated with 175 μL of MTT solution (P-LAB, Prague, Czech Republic) for 2 h. In the next step, MTT solution was removed, and 125 μL of DMSO (Penta, Prague, Czech Republic) was added to solubilize dark crystals of formazan formed in intact cells, and absorbance was measured at 570 nm by the enzyme-linked immunoabsorbent assay reader Infinite® 200 PRO (Tecan, Männedorf, Switzerland). The final DMSO concentration was smaller than 1% (v/v). The absorbance of untreated cells was considered 100%, and IC50 values were calculated by the GraphPad Prism 8 software. As a parameter for cytotoxicity, we used a concentration that inhibits 50% of cell growth (IC50).

[2] = system: HF-P4 cells; test: MTT cytotoxicity assay, HF-P4; details: 48 h; for Cell viability %: repeats
Method: as §1
(§4) A human dermal fibroblast cell line was used for intracellular localization and cytotoxicity assay (MTT). Human fibroblast cells HF-P4 (human fibroblasts—patient 4) are normal dermal fibroblasts, which were obtained from the residual skin of a healthy patient who underwent plastic surgery (with informed consent of the patient). HF-P4 cell lines were obtained from the Department of Plastic Surgery, Third Faculty of Medicine, Charles University and University Hospital Královské Vinohrady, Prague, Czech Republic, as described by Szabo et al., 2011, and Dvořánková et al., 2019 [88, 89], and have been processed in accordance with the relevant local ethics committee and the Declaration of Helsinki protection of patients’ rights and benefits with written and signed informed consent of each patient. Cells were cultivated under standard conditions in Dulbecco’s modified Eagle’s medium (ATCC, Manassas, VA, USA), supplemented with 10% FBS and streptomycin (100 μg/mL) at 37 °C at a 5% CO2 atmosphere.
as §3

[3] = MTT cytotoxicity assay, HF-P4; details: human, HF-P4 normal human dermal fibroblasts, repeats, read-out: Cell viability %
Method: as §1, §4, §3

[4] = system: U-118 MG cells; test: MTT cytotoxicity assay, U-118 MG; details: 48 h
Method: as §1, §2, §3

Cc1ccc(-n2c(-c3ccc(C(=O)N/N=C/c4ccc(O)cc4O)cc3)cc3c2cc(-c2ccc(C(=O)N/N=C/c4ccc(O)cc4O)cc2)n3-c2ccc(C)cc2)cc1 [Compound 4]
Cell viability % ([1]; H-1299, 100 nM, 48 h, repeats, 0.1 µM): 109.0835% and 92.98%
Cell viability % ([1]; H-1299, 500 nM, 48 h, repeats, 0.5 µM): 110.8313% and 69.08% and 86.72%
Cell viability % ([1]; H-1299, 750 nM, 48 h, repeats, 0.75 µM): 86.2% and 81.89%
Cell viability % ([1]; H-1299, 1 uM, 48 h, repeats, 1 µM): 88.02% and 73.99% and 66.83%
Cell viability % ([1]; H-1299, 2.5 uM, 48 h, repeats, 2.5 µM): 77.91% and 68.92%
Cell viability % ([1]; H-1299, 5 uM, 48 h, repeats, 5 µM): 68.74% and 52.75%
Cell viability % ([1]; H-1299, 7.5 uM, 48 h, repeats, 7.5 µM): 38.28% and 33.07%
Cell viability % ([1]; H-1299, 10 uM, 48 h, repeats, 10 µM): 21.64% and 18.84%
Cell viability % ([1]; H-1299, 15 uM, 48 h, repeats, 15 µM): 10.46% and 11.78%
Cell viability % ([1]; H-1299, 20 uM, 48 h, repeats, 20 µM): 7.89% and 6.315%
viability at 0.1 µM ([1]; Homo sapiens, NCI-H1299, 48 h, H-1299, 100 nM, repeats, read-out: Cell viability %): 110%
viability at 0.75 µM ([1]; Homo sapiens, NCI-H1299, 48 h, H-1299, 750 nM, repeats, read-out: Cell viability %): 86.1%
viability at 2.5 µM ([1]; Homo sapiens, NCI-H1299, 48 h, H-1299, 2.5 uM, repeats, read-out: Cell viability %): 77.6%
viability at 5 µM ([1]; Homo sapiens, NCI-H1299, 48 h, H-1299, 5 uM, repeats, read-out: Cell viability %): 66.7%
viability at 7.5 µM ([1]; Homo sapiens, NCI-H1299, 48 h, H-1299, 7.5 uM, repeats, read-out: Cell viability %): 35.8%
viability at 10 µM ([1]; Homo sapiens, NCI-H1299, 48 h, H-1299, 10 uM, repeats, read-out: Cell viability %): 14.8%
viability at 15 µM ([1]; Homo sapiens, NCI-H1299, 48 h, H-1299, 15 uM, repeats, read-out: Cell viability %): 11.1%
viability at 20 µM ([1]; Homo sapiens, NCI-H1299, 48 h, H-1299, 20 uM, repeats, read-out: Cell viability %): 7.35%
IC50 ([1]; Homo sapiens, NCI-H1299, MTT, 48 h): 5.75 µM
Cell viability % ([2]; HF-P4, 100 nM, 0.1 µM): 100.6236% and 114.7117%
Cell viability % ([2]; HF-P4, 500 nM, 0.5 µM): 87.47% and 94.87%
Cell viability % ([2]; HF-P4, 750 nM, 0.75 µM): 85.1% and 92.38%
Cell viability % ([2]; HF-P4, 1 uM, 1 µM): 81.67% and 86.71%
Cell viability % ([2]; HF-P4, 2.5 uM, 2.5 µM): 86.63% and 76.23%
Cell viability % ([2]; HF-P4, 5 uM, 5 µM): 73.34% and 61.32%
Cell viability % ([2]; HF-P4, 7.5 uM, 7.5 µM): 70.27% and 58.24%
Cell viability % ([2]; HF-P4, 10 uM, 10 µM): 62.49% and 65.68%
Cell viability % ([2]; HF-P4, 15 uM, 15 µM): 53.94% and 54.86%
Cell viability % ([2]; HF-P4, 20 uM, 20 µM): 38.68% and 44.63%
IC50 ([2]; Homo sapiens, MTT): 13.1 µM
viability at 48 h, 0.1 µM ([3]; HF-P4, 100 nM): 102%
viability at 48 h, 0.5 µM ([3]; HF-P4, 500 nM): 94.9%
viability at 48 h, 0.75 µM ([3]; HF-P4, 750 nM): 84.8%
viability at 48 h, 1 µM ([3]; HF-P4, 1 uM): 86%
viability at 48 h, 2.5 µM ([3]; HF-P4, 2.5 uM): 74.5%
viability at 48 h, 5 µM ([3]; HF-P4, 5 uM): 74.9%
viability at 48 h, 7.5 µM ([3]; HF-P4, 7.5 uM): 66.9%
viability at 48 h, 10 µM ([3]; HF-P4, 10 uM): 59.9%
viability at 48 h, 15 µM ([3]; HF-P4, 15 uM): 45.1%
viability at 48 h, 20 µM ([3]; HF-P4, 20 uM): 36.4%
viability at 0.1 µM ([4]; Homo sapiens, U-118-MG, U-118 MG, 100 nM, repeats, read-out: Cell viability %): 89.7%
viability at 0.5 µM ([4]; Homo sapiens, U-118-MG, U-118 MG, 500 nM, repeats, read-out: Cell viability %): 81.5%
viability at 0.75 µM ([4]; Homo sapiens, U-118-MG, U-118 MG, 750 nM, repeats, read-out: Cell viability %): 88.6%
viability at 1 µM ([4]; Homo sapiens, U-118-MG, U-118 MG, 1 uM, repeats, read-out: Cell viability %): 88.8%
viability at 2.5 µM ([4]; Homo sapiens, U-118-MG, U-118 MG, 2.5 uM, repeats, read-out: Cell viability %): 78.8%
viability at 5 µM ([4]; Homo sapiens, U-118-MG, U-118 MG, 5 uM, repeats, read-out: Cell viability %): 73.7%
viability at 7.5 µM ([4]; Homo sapiens, U-118-MG, U-118 MG, 7.5 uM, repeats, read-out: Cell viability %): 24.8%
viability at 10 µM ([4]; Homo sapiens, U-118-MG, U-118 MG, 10 uM, repeats, read-out: Cell viability %): 30%
viability at 15 µM ([4]; Homo sapiens, U-118-MG, U-118 MG, 15 uM, repeats, read-out: Cell viability %): 21.2%
viability at 20 µM ([4]; Homo sapiens, U-118-MG, U-118 MG, 20 uM, repeats, read-out: Cell viability %): 15.2%
IC50 ([4]; Homo sapiens, U-118-MG, MTT): 6.81 µM
Cell viability % ([4]; U-118 MG, 100 nM, repeats, 0.1 µM): 88.01% and 106.1964%
Cell viability % ([4]; U-118 MG, 500 nM, repeats, 0.5 µM): 94.35% and 91.8%
Cell viability % ([4]; U-118 MG, 750 nM, repeats, 0.75 µM): 93.98% and 97.45%
Cell viability % ([4]; U-118 MG, 1 uM, repeats): 94.85% and 87.1%
Cell viability % ([4]; U-118 MG, 2.5 uM, repeats): 87.61% and 83.16%
Cell viability % ([4]; U-118 MG, 5 uM, repeats): 72.71% and 76.46%
Cell viability % ([4]; U-118 MG, 7.5 uM, repeats): 24.19% and 24.17%
Cell viability % ([4]; U-118 MG, 10 uM, repeats): 29.03% and 31.26%
Cell viability % ([4]; U-118 MG, 15 uM, repeats): 21.17% and 19.82%
Cell viability % ([4]; U-118 MG, 20 uM, repeats): 15.6756% and 12.31%
